“And” between values parts separate entries of the source, which are not always exact repeats. Equal values may be shown once.
Key:
[1] = test system: L1210 leukemia; test: NCI 3LE31, i.p.-implanted L1210 lymphoid leukemia; format: in vivo, DBA/2 mice
Description: (§1) The spectrum of antitumor activity of the compound of Example 1 was determined employing a number of standard National Cancer Institute (NCI) protocols. The antitumor activity was determined in vivo against several different tumors, employing various treatment schedules and routes of administration.
Samples of the test compounds of Examples 1-10 and a number of structurally-related control compounds were tested in accordance with National Cancer Institute test protocol 3LE31 (NCI Protocol 1.100, Cancer Chemotherapy Reports Part 3, Vol. 3, No. 2, September 1972) to determine the effects of the several compounds on i.p.-implanted L1210 leukemia (J. Nat'l. Cancer Inst. 13(5):1328, 1953). Each test involved implantation of the leukemia cells in six DBA/2 mice, one sex per experiment, the male mice weighing a minimum of 18 grams and the female mice weighing a minimum of 17 grams, and all of the test animals being within a three gram weight range. The test compound was administered by i.p. injections, in 0.1 ml. doses of diluted ascitic fluid (10^5 cells per dose), commencing one day after the tumor implant and continuing daily for nine days.
The test animals were weighed and survivors recorded on a regular basis during a thirty day test period. The ratio of survival time for the treated and control animals (T/C) was determined as a percentage.
The tests were carried out at varying dosage levels and with varying numbers of repetitions, depending upon the results obtained with each test compoud. […] A reproducible T/C of 150% or higher is considered significant activity.
The number of mice "cured", viz., those surviving from each animal test group after the thirty day test period, is indicated in parenthesis following the T/C percentage data in Table III below: […]

[2] = test system: CD8F1 mammary tumor; test: NCI 3CDJ2, s.c.-implanted staged mammary adenocarcinoma CD8F1; format: in vivo, murine (mice); design: key to Treated/Control percent: (-): toxic dose
Description: as §1
(§2) The ratio of the survival time for the treated animals (T) to the survival time for the control animals (C) determined at varying dosages in the respective in vivo tests is set forth in the table: […]

[3] = test system: MX-1 mammary tumor; test: NCI 3MBG5, s.r.c. human mammary carcinoma MX-1 xenograft; format: in vivo, human tumor xenograft; design: key to Treated/Control percent: (-): toxic dose
Description: as §1, §2

[4] = test system: L1210 leukemia; test: NCI 3LE37, i.c.-implanted L1210 leukemia; format: in vivo, murine (mice); design: key to Treated/Control percent: (-): toxic dose
Description: as §1, §2

[5] = test system: M5076 sarcoma; test: NCI 3M531, i.p.-implanted M5076 sarcoma; format: in vivo, murine (mice); design: key to Treated/Control percent: (-): toxic dose
Description: as §1
In three experiments involving the i.p. implanted M5076 sarcoma, maximum ILS values of 72, 72 and 48% were achieved after i.p. treatment on days 1, 5, 9 and 13.
as §2

[6] = test system: B16 melanoma; test: NCI 3B131, i.p.-implanted B16 melanoma; format: in vivo, murine (mice)
Description: as §1, §2

[7] = test system: Colon 38 tumor; test: NCI 3C872, s.c.-implanted colon 38 carcinoma; format: in vivo, murine (mice); design: key to Treated/Control percent: (-): toxic dose
Description: as §1, §2

[8] = test system: P388 leukemia; test: NCI 3PS31, i.p.-implanted P388 leukemia; format: in vivo, murine (mice); design: key to Treated/Control percent: (-): toxic dose
Description: as §1, §2

[9] = test system: L1210 leukemia; test: Effects of treatment schedule and route of administration against s.c.-implanted L1210 leukemia; format: in vivo
Description: The influences of treatment schedule and route of administration on the antitumor activity of the compound of Example 1 were evaluated using the s.c. implanted L1210 leukemia system. The drug was tested in the form of a freeze dried dosage form containing 50 mg. of the compound and 100 mg. N-methylglucamine, reconstituted with 5 ml. of sterile water to yield a 10 mg/ml. solution at about pH 9.5.
The percentage increases in life span (%ILS) are shown in the accompanying drawing for different treatment regimens and routes of administration. […] The highest percent ILS was 471 obtained by daily i.p. injections of the active material on a five day schedule of 45 mg/kg/injection, corresponding to a total dose of 225 mg/kg/duration of the treatment (test C in the drawing). This dosage also gave 5 cures.

[10] = test system: L1210 leukemia; test: NCI 3LE32, s.c.-implanted L1210 leukemia; format: in vivo, murine (mice); design: key to Treated/Control percent: (-): toxic dose
Description: as §1, §2

[11] = test system: Lewis lung carcinoma; test: NCI 3LL39, i.v.-implanted Lewis lung carcinoma; format: in vivo, murine (mice)
Description: as §1, §2

[12] = 50 mg/kg, stated jointly for i.p. and s.c. L1210 systems
[13] = i.p. L1210, i.p. days 1-9 (Table I)
[14] = s.c. L1210, i.p. days 1-9 (Table I)

Structure (SMILES): O=C(Nc1ccccc1)c1c(O)[nH]c(=S)[nH]c1=O [Example 1, 1,2,3,4-tetrahydro-6-hydroxy-4-oxo-N-phenyl-2-thioxo-5-pyrimidinecarboxamide]
- maximum increased life spans [1, 12]: 87-190%
- cures (in words) ([1]; 100 mg/kg): produced a number of cures at 100 mg/kg
- curative, share of test mice ([1]; 100 mg/kg i.p. daily for 9 days, i.p. L1210): at least 50%
- toxicity of 100 mg/kg dose ([1]; 100 mg/kg i.p. daily for 9 days, i.p. system): occasionally demonstrated some toxicity
- activity in i.p.-implanted lymphoid leukemia test (in words) ([1]; 3LE31, reproducible T/C of 150% or higher is considered significant activity): exhibited significant activity
- response vs control in vivo at 6.25 mg/kg ([1]; Mus musculus, L1210, ip, 6.25 mg/kg i.p. daily for nine days, read-out: T/C % (survival time treated/control)): 116%
- response vs control in vivo at 12.5 mg/kg ([1]; Mus musculus, L1210, ip, 12.5 mg/kg i.p. daily for nine days, read-out: T/C % (survival time treated/control)): 117%
- cures/total [1, 13]: 4/6 and 6/6
- increase in life-span (% ILS) [1, 13]: > 275% and > 229%
- Treated/Control percent ([2]; 56 mg/kg): 61%
- Treated/Control percent ([2]; 112 mg/kg): 80%
- Treated/Control percent ([2]; 225 mg/kg): (-)
- Treated/Control percent ([2]; 450 mg/kg): (-)
- Treated/Control percent ([2]; 900 mg/kg): (-)
- effectiveness (in words) ([2]; s.c. implanted CD8F1, experimental conditions employed): ineffective
- Treated/Control percent ([3]; 75 mg/kg): 98%
- Treated/Control percent ([3]; 150 mg/kg): (-)
- Treated/Control percent ([3]; 300 mg/kg): (-)
- Treated/Control percent ([3]; 600 mg/kg): (-)
- effectiveness (in words) ([3]; s.r.c. xenograft, experimental conditions employed): ineffective
- Treated/Control percent ([4]; 12.5 mg/kg): 94% and 106%
- Treated/Control percent ([4]; 25 mg/kg): 98%
- Treated/Control percent ([4]; 50 mg/kg): 113% and 108%
- Treated/Control percent ([4]; 100 mg/kg): 128% and 134%
- activity (in words) ([4]; 100 mg/kg i.p. daily for 9 days): marginal activity
- Treated/Control percent ([4]; 200 mg/kg): (-)
- increase in life-span (% ILS) ([4]; i.c. L1210, 100 mg/kg i.p. daily for 9 days): 28-34%
- Treated/Control percent ([5]; 12.5 mg/kg): 117%
- Treated/Control percent ([5]; 25 mg/kg): 101% and 130%
- Treated/Control percent ([5]; 50 mg/kg): 124% and 147%
- Treated/Control percent ([5]; 100 mg/kg): 148% and 172%
- Treated/Control percent ([5]; 200 mg/kg): (-)
- cures/total ([5]; i.p. M5076, Days 1-13): 2/10
- increase in life-span (% ILS) ([5]; i.p. M5076, i.p. treatment on days 1, 5, 9 and 13, maximum values): 72% and 48%
- Treated/Control percent ([6]; 6 mg/kg): 108%
- Treated/Control percent ([6]; 12 mg/kg): 128%
- Treated/Control percent ([6]; 25 mg/kg): 137% and 158%
- Treated/Control percent ([6]; 50 mg/kg): 152% and 169%
- Treated/Control percent ([6]; 100 mg/kg): 185% and 193%
- increase in life-span (% ILS) ([6]; i.p. B16, days 1-9 i.p., optimal values at 100 mg/kg, 100 mg/kg): 93% and 85%
- Activity (ILS) ([6]; over at least a 4-fold dosage range): 25%
- Treated/Control percent ([7]; 56 mg/kg): 70% and 120%
- Treated/Control percent ([7]; 225 mg/kg): 51%
- Treated/Control percent ([7]; 450 mg/kg): (-)
- Treated/Control percent ([7]; 900 mg/kg): (-)
- effectiveness (in words) ([7]; s.c. implanted colon 38, experimental conditions employed): ineffective
- Treated/Control percent ([8]; 3.13 mg/kg): 110%
- Treated/Control percent ([8]; 6.25 mg/kg): 116%
- Treated/Control percent ([8]; 12.5 mg/kg): 120%
- Treated/Control percent ([8]; 25 mg/kg): 145% and 138%
- Treated/Control percent ([8]; 50 mg/kg): 162% and 194% and 201%
- Treated/Control percent ([8]; 100 mg/kg): (-)
- Treated/Control percent ([8]; 200 mg/kg): (-)
- increase in life-span (% ILS) ([8]; i.p. P388, 50 mg/kg i.p. daily, five days, maximum values): 101% and 94% and 62%
- activity (in words) ([8]; standard NCI P388 preliminary screen): good activity
- increases in life span by treatment and route (in words) ([9]; all treatments and routes, exceptions tests A and G (i.p. and i.v. one day, one injection)): increases in life span were noted using all treatments and routes of administration save for the i.p. and i.v. one day, one injection treatments
- substantial increases in life span (% ILS) ([9]; each route and schedule save single treatment i.p. and i.v.): > 25%
- toxicity (in words) ([9]; highest dose in each schedule, exception test F (i.p. every three hours on days one, five and nine)): toxicity was noted with the highest dose in each treatment schedule except for that involving i.p. administration every three hours on days one, five and nine of a nine day test
- cures ([9]; test C: daily i.p., five days, 45 mg/kg/injection): 5
- increase in life span (% ILS) ([9]; test C: daily i.p., five days, 45 mg/kg/injection, total 225 mg/kg): 471%
- cures ([9]; test I: oral daily for nine days, 124 mg/kg/injection): 4
- increase in life span (% ILS) ([9]; test I: oral daily for nine days, 124 mg/kg/injection, cumulative 1116 mg/kg): 452%
- Treated/Control percent ([10]; 12.5 mg/kg): 109% and 104%
- Treated/Control percent ([10]; 25 mg/kg): 108% and 99%
- Treated/Control percent ([10]; 50 mg/kg): 140% and 127%
- maximum increased life spans [10, 12]: 87-190%
- Treated/Control percent ([10]; 100 mg/kg): 300% and 254%
- cures in test at specified dose ([10]; 100 mg/kg): 5 and 3
- curative, share of test mice ([10]; 100 mg/kg i.p. daily for 9 days, s.c. L1210): at least 50%
- Treated/Control percent ([10]; 200 mg/kg): (-)
- cures/total [10, 14]: 5/6 and 3/6
- increase in life-span (% ILS) [10, 14]: > 200% and > 154%
- Treated/Control percent ([11]; 12.5 mg/kg): 103%
- Treated/Control percent ([11]; 25 mg/kg): 106%
- Treated/Control percent ([11]; 50 mg/kg): 115%
- Treated/Control percent ([11]; 100 mg/kg): 126%
- effectiveness (in words) ([11]; i.v. implanted, experimental conditions employed): ineffective
